Assays:
Aedes albopictus = experiment: Behavioural (blood-feeding) repellency test on feeders covered with pig intestinal skin; format: in vivo
Procedure: Testing was performed as to the activity of the compositions obtained by the method according to the invention on the behaviour of the tiger mosquito, Aedes albopictus.
The behavioural tests were carried out at the Montpellier Vectopôle, which is a research centre that collaborates with the WHO for the evaluation of insecticides in public health.
The tests were carried out on mosquitoes aged 5 to 9 days old after their evolution from pupae to adult.
In preparation for the experiment, the mosquitoes were […] on the day prior thereto, in order to promote their appetite for the test to occur the subsequent day.
Each cup contains a damp cotton. The female mosquitoes were removed from the cage making use of a tube that enables aspiration thereof. They were then introduced into each experiment cup (10 mosquitoes per cup).
The tests were carried out on plexiglass racks serving as supports for glass bells known as feeders. The latter are connected to each other by plastic pipes wherein water circulates at 37° C.
Pig intestinal skin was used to mimic human skin in the experiment. The pieces of intestinal skin are positioned and stretched over the feeders.
The repellent is diluted in ethyl alcohol (aka ethanol or EtOH) and is deposited on the skin using a micropipette and then spread over the entire surface. […] If the composition tested is a mixture of at least two compounds, one of which is PMD, the said composition is diluted in ethanol at a concentration of 0.02036 mg/μL, or else is diluted in ethanol until 0.02036 mg/μL of PMD is obtained.
The feeders are turned over, then 300 μL of sheep blood are placed in each feeder. The cups are inserted under each feeder.
Polystyrene plates are inserted between the lines of repellent so as to avoid possible interactions of odours. The duration of the experiment is one hour. The cups are then placed in a freezer at −20° C. for a period of 40 minutes. After freezing, the contents of one cup are placed between two sheets of paper, with the entirety thereof then being crushed with a plexiglass plate. The counting of the blood-fed (engorged) mosquitoes is done based on the number of red dots on the sheet of paper. The results are expressed as a percentage of repellency (100%-X % of blood-feeding). The percentage of blood-feeding is defined in relation to the EtOH negative control. DEET and commercial cis/trans PMD 75/25 at 200 mg/m^2 were used as positive controls.
The results obtained were statistically analysed using R software (R Development Core Team. R: A language and environment for statistical computing. R Foundation for Statistical Computing, Vienna, Austria. ISBN 3-900051-07-0, 2013) and represent the mean of 16 replicates. The percentage repellency values are presented as the mean±standard deviation. The R software also makes it possible to compare two percentage repellency values by means of calculating the quantity p. This quantity p is a probability.

acetylcholinesterase = conditions: enzyme of insects as also of mammals; cited from earlier work

Row | Structure (SMILES) | % Repellency (Aedes albopictus; Table 2 series, 200 mg/m^2 in EtOH, 1 h, mean ± SD) [%] | % Repellency (Aedes albopictus; Table 3 series, 200 mg/m^2 in EtOH, 1 h, mean ± SD) [%] | % Repellency (Aedes albopictus; Table 4 series, PMD at 200 mg/m^2 in EtOH, mean ± SD) [%] | % Repellency (Aedes albopictus; Table 5 series, PMD at 200 mg/m^2 in EtOH, mean ± SD) [%] | % Repellency (Aedes albopictus; Table 6 series, PMD at 200 mg/m^2 in EtOH, mean ± SD) [%] | % Repellency (Aedes albopictus; Table 7 series, PMD at 200 mg/m^2 in EtOH, mean ± SD) [%] | ED 50 expressed as concentration (Aedes albopictus; concentration in EtOH tantamount to 200 mg/m^2) [mg/mL] | ED 50 (median effective dose) (Aedes albopictus; repellency, dose on skin surface) [mg/m^2] | acetylcholinesterase inhibition (acetylcholinesterase) | % Repellency (Aedes albopictus; Table 2 series, 110 mg/m^2 in EtOH, 1 h, mean ± SD of 16 replicates) [%] | % Repellency (Aedes albopictus; Table 3 series, 110 mg/m^2 in EtOH, 1 h, mean ± SD) [%] | % Repellency (Aedes albopictus; Table 4 series, 110 mg/m^2 in EtOH, mean ± SD) [%] | % Repellency (Aedes albopictus; Table 5 series, 110 mg/m^2 in EtOH, mean ± SD) [%] | % Repellency (Aedes albopictus; Table 6 series, 110 mg/m^2 in EtOH, mean ± SD) [%] | % Repellency (Aedes albopictus; Table 7 series, 110 mg/m^2 in EtOH, mean ± SD) [%]
1 | CC1CCC(C(C)(C)O)C(O)C1 (mixture of isomers) [Commercial cis/trans PMD 75/25, p-menthane-3,8-diol] | 51 ± 11 | 55 ± 1 | 31 ± 7 | 36 ± 1 | 48 ± 15 | 52 ± 12 | 20.36 | 200 |  |  |  |  |  |  | 
2 | CCN(CC)C(=O)c1cccc(C)c1 [DEET, N,N diethyl-meta-toluamide] |  |  |  |  |  |  |  |  | inhibits | 76 ± 9 | 56 ± 8 | 39 ± 7 | 49 ± 17 | 73 ± 2 | 43 ± 13

— US12648560B2, “Mosquito repellent composition and method for the preparation thereof” (priority 2019, dated 2026)
